ChEMBL document CHEMBL1255390, “Clinical pharmacodynamics of cefepime in patients infected with Pseudomonas aeruginosa” (2010)
≈ marks a conversion by molar mass, not a printed value.

Experiments:
Assay type in all cases: functional
[1] = fT>MIC in Pseudomonas aeruginosa infected patient
[2] = fT>MIC in Pseudomonas aeruginosa infected patient at 2 g,iv administered as 3 hrs infusion every 8 hrs
[3] = tested on: Pseudomonas aeruginosa; assay: Antimicrobial activity against Pseudomonas aeruginosa isolated from infected patient by Etest method

## CO/N=C(\C(=O)N[C@@H]1C(=O)N2C(C(=O)[O-])=C(C[N+]3(C)CCCC3)CS[C@H]12)c1csc(N)n1 [CEFEPIME]
[1]
  fT>MIC: 85.2%
[2]
  fT>MIC: >60%
[3]
  MIC50: 3 µg/mL (≈ 6.24 µM)
  MIC90: 16 µg/mL (≈ 33.3 µM)
